Test results as given in patent US20250276968A1, “8- AND 6-SUBSTITUTED PYRIDOPYRIMIDINE DERIVATIVES AS KRAS INHIBITORS” (Beta Pharma, Inc., priority 2022, published 2025).

Experiment: Pharmacokinetics in male CD-1 mice (IV and PO dosing)
Format: in vivo
Settings: mean plasma
Description: The pharmacokinetic profile of the Example 1 (compound 1a) was determined in male CD-1 mice by WuXi AppTec Co., Ltd., 1318 Wuzhong Avenue, Wuzhong District, Suzhou, China, 215104.

- AUCExtra (3 mg/kg IV): 9.23%
- AUMCExtra (3 mg/kg IV): 35.2%
- Tlast (3 mg/kg IV): 8.00 h
- AUCExtra (30 mg/kg PO): 17.1%
- AUMCExtra (30 mg/kg PO): 43.8%
- Tlast (30 mg/kg PO): 8.00 h
Structure (SMILES): C=C(F)C(=O)N1CCN(c2nc(OC[C@@H]3CCCN3C)nc3cc(-c4cccc5cccc(Cl)c45)cnc23)C[C@@H]1CC#N [Example 1, 2-((S)-4-(7-(8-Chloronaphthalen-1-yl)-2-(((S)-1-methylpyrrolidin-2-yl)methoxy)pyrido[3,2-d]pyrimidin-4-yl)-1-(2-fluoroacryloyl)piperazin-2-yl)acetonitrile]
